Measured values: US8415469B2, “Compounds and methods for kinase modulation, and indications therefor” (Plexxikon Inc., priority 2005, dated 2013)

Tests used:
Assay type in all cases: biochemical
B-Raf = biological target: T1, B-Raf (Homo sapiens, UniProt P15056); assay: AlphaScreen kinase assay, B-Raf; settings: read-out: IC50, activity toward kinase B-Raf
T1 construct: purchased Upstate Biotechnology

B-Raf V600E = biological target: T2, B-Raf V600E (Homo sapiens, UniProt P15056, V600E); assay: AlphaScreen kinase assay, B-Raf V600E; settings: read-out: IC50, activity toward kinase B-Raf V600E
T2 construct: P4254. pFastBacBD-CDC37 BRAF D437-K722-X, V600E; His6 with pFastBac HT leader (TEV site) (N); made in house; host or cells: Sf9 (baculovirus; chaperone CDC37 co-expressed)

Fak = biological target: T3, Fak (Homo sapiens, UniProt Q05397); assay: AlphaScreen kinase assay, Fak; settings: read-out: IC50, activity toward kinase Fak
T3 construct: P1358.pFastBacHtb FAK S411-Q686-X; His6 with pFastBacHTb leader (TEV site) (N); made in house; host or cells: Sf9 (baculovirus)

FGFR1 = biological target: T4, FGFR1 (Homo sapiens, UniProt P11362, C488A/C584S); assay: AlphaScreen kinase assay, FGFR1; settings: read-out: IC50, activity toward kinase FGFR
T4 construct: P1351.pET N6 BI-PTP FGFR A458-E765-X C488A, C584S; made in house; host or cells: E. coli (PTP1B co-expressed)

Fms = biological target: T5, Fms (Homo sapiens, UniProt P07333); assay: AlphaScreen kinase assay, Fms; settings: read-out: IC50, activity toward kinase Fms
T5 construct: purchased Upstate Biotechnology

Kit = biological target: T6, Kit (Homo sapiens, UniProt P10721); assay: AlphaScreen kinase assay, Kit; settings: read-out: IC50, activity toward kinase Kit
T6 construct: P1332.N6 BI PTP KIT M552-K948-X COD; His6 (N); made in house; host or cells: E. coli (PTP1B co-expressed)

Src = biological target: T7, Src (Homo sapiens, UniProt P12931); assay: AlphaScreen kinase assay, Src; settings: read-out: IC50, activity toward kinase Src
T7 construct: P1144. pET-N6 BI-PTP SRC V86-L536-X; made in house

Flt1 = biological target: T8, Flt1 (Homo sapiens, UniProt P17948); assay: AlphaScreen kinase assay, Flt1; settings: read-out: IC50, activity toward kinase Flt1
T8 construct: P1826.pETN6 BI-PTP FLT1 M799-D1165-X WT; His6 (N); made in house; host or cells: E. coli (PTP1B co-expressed)
T8 sequence (P17948 with tags, fused parts or gaps): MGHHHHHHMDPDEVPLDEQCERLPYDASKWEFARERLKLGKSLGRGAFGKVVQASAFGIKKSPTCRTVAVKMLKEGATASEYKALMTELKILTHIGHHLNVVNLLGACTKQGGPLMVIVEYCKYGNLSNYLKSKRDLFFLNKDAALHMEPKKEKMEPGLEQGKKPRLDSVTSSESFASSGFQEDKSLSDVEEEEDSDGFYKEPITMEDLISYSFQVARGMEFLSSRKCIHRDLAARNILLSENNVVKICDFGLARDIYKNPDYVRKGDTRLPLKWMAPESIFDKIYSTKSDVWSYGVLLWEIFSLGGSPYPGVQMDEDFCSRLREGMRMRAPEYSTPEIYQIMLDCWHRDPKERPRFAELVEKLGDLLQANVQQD

c-Raf-1 = biological target: T9, c-Raf-1 (Homo sapiens, UniProt P04049); assay: AlphaScreen kinase assay, c-Raf-1; settings: read-out: IC50, activity toward kinase c-Raf-1
T9 construct: purchased Upstate Biotechnology

Jnk1 = biological target: T10, Jnk1 (Homo sapiens, UniProt P45983); assay: AlphaScreen kinase assay, Jnk1; settings: read-out: IC50, activity toward kinase Jnk1
T10 construct: purchased Upstate Biotechnology

Jnk3 = biological target: T11, Jnk3 (Homo sapiens, UniProt P53779); assay: AlphaScreen kinase assay, Jnk3; settings: read-out: IC50, activity toward kinase Jnk3
T11 construct: purchased Upstate Biotechnology

Measured: IC50

T2 sequence (P15056 with tags, fused parts or gaps V600E): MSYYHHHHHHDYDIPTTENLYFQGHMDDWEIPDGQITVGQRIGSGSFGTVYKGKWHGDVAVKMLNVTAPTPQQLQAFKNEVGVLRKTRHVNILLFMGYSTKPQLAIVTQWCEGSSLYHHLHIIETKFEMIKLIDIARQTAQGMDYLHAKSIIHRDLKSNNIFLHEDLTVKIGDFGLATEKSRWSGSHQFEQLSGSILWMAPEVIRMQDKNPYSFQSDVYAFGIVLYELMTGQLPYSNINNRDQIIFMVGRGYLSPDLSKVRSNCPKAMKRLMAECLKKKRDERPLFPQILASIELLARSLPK
T4 sequence (P11362 458-765 C488A/C584S): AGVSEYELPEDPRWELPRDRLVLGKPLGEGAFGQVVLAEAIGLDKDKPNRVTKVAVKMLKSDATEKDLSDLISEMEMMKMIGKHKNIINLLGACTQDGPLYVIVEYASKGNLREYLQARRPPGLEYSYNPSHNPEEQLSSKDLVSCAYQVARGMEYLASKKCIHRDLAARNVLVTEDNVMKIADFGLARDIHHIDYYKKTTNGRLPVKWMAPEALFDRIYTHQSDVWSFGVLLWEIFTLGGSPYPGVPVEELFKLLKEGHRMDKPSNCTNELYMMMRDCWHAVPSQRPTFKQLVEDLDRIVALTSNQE
T7 sequence (P12931 with tags, fused parts or gaps): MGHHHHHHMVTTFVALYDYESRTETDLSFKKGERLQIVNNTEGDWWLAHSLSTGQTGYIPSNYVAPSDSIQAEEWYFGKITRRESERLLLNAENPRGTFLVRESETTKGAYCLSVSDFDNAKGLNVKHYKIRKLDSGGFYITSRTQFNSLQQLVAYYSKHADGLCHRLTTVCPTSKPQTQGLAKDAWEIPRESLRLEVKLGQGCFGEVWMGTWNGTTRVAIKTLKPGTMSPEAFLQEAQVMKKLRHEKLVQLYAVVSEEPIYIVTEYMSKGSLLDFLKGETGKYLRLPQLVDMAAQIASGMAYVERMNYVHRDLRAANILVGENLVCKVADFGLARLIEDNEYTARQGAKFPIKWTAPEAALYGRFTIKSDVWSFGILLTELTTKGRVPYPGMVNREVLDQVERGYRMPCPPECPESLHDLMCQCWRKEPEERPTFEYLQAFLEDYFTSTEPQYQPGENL
T6 sequence (P10721 with tags, fused parts or gaps): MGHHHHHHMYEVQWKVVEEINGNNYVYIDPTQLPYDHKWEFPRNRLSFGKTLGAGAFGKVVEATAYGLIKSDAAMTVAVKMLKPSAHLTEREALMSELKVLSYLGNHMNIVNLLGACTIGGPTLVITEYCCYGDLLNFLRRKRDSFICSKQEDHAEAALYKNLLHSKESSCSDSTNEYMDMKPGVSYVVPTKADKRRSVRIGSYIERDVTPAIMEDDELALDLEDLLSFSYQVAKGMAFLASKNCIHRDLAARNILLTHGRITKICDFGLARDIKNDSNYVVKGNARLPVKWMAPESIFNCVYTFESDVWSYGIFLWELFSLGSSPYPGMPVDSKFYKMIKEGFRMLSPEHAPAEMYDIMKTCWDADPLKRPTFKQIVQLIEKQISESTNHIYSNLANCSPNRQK
T1 sequence (P15056 whole entry): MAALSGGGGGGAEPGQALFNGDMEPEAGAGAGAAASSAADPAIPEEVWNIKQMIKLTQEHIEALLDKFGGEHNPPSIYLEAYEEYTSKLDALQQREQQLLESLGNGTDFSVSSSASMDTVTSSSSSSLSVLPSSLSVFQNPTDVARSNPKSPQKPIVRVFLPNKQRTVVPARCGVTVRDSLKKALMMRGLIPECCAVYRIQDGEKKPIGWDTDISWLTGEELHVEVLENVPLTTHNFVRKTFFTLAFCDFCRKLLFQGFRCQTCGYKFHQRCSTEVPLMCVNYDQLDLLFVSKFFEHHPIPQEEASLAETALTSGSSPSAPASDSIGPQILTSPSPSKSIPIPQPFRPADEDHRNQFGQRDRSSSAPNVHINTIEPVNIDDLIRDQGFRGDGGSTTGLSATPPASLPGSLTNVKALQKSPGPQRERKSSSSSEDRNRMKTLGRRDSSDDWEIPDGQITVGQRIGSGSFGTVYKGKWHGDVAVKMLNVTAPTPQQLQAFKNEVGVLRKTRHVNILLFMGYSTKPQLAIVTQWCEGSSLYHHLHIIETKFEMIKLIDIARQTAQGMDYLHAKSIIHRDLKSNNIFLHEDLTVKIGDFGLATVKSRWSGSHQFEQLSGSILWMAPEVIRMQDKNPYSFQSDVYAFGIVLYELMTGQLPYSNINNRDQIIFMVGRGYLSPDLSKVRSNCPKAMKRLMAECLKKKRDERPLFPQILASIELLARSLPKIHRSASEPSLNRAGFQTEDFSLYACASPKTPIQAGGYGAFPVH
T9 sequence (P04049 whole entry): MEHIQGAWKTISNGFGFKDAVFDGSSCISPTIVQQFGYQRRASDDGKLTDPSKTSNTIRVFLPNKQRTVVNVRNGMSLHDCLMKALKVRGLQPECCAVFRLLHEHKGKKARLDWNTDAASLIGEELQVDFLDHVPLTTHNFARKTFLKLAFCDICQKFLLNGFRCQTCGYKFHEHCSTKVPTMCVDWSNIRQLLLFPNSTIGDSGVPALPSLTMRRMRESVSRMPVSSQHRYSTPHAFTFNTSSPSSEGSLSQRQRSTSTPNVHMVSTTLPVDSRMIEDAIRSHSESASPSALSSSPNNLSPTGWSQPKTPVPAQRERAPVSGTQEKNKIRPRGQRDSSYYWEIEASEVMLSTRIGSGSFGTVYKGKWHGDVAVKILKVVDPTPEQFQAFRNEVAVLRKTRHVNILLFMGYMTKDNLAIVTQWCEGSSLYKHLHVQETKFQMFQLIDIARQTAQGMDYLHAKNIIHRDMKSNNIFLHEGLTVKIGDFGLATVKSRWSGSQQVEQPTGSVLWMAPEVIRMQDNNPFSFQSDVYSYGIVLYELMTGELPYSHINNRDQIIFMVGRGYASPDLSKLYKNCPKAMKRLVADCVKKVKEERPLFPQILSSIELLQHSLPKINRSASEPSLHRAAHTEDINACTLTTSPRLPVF
T5 sequence (P07333 20-972): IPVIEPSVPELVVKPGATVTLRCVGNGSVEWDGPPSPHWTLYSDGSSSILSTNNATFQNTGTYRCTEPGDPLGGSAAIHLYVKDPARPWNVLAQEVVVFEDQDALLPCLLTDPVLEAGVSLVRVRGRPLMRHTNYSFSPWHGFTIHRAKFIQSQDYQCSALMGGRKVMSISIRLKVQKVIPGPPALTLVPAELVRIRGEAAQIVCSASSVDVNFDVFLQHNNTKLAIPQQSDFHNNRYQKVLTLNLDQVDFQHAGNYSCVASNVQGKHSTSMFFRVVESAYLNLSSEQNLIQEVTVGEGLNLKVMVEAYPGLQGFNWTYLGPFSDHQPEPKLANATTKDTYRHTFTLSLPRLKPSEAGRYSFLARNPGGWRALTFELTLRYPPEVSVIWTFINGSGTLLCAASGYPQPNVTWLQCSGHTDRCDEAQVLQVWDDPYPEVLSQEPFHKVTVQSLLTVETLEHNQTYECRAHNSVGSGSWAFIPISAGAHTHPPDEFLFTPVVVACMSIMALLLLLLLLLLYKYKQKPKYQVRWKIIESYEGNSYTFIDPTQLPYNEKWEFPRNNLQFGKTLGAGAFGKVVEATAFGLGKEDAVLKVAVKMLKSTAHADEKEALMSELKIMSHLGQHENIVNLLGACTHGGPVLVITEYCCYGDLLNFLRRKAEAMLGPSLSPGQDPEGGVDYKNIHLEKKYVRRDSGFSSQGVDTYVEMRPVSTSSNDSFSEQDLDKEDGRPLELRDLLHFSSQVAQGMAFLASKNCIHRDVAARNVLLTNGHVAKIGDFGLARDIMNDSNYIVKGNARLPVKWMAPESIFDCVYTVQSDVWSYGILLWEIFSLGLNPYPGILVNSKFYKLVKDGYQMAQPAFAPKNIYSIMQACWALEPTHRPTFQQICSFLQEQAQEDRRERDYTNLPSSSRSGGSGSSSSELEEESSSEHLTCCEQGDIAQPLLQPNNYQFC
T3 sequence (Q05397 411-686): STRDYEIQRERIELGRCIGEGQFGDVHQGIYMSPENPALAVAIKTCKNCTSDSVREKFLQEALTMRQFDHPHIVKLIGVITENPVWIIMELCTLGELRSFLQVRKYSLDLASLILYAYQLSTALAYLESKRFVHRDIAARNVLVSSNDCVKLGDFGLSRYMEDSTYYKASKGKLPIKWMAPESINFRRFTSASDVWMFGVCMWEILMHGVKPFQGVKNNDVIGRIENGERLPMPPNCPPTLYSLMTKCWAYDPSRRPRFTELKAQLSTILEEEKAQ
T11 sequence (P53779 whole entry): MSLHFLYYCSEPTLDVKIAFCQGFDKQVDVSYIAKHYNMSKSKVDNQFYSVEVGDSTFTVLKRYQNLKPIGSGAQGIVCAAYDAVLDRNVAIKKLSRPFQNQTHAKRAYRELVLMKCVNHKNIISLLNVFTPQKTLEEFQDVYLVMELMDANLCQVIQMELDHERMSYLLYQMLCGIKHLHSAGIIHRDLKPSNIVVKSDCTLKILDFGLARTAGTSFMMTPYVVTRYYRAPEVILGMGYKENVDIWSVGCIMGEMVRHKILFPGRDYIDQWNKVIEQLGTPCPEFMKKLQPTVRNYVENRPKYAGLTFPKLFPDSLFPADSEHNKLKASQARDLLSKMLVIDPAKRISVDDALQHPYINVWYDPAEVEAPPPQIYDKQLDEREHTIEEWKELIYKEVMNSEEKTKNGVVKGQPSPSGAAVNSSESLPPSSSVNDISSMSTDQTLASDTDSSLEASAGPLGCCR

CCCCS(=O)(=O)Nc1ccc(F)c(C(=O)c2c[nH]c3ncc(Br)cc23)c1F [Compound P-1263, Butane-1-sulfonic acid [3-(5-bromo-1H-pyrrolo[2,3-b]pyridine-3-carbonyl)-2,4-difluoro-phenyl]-amide]
not listed: Flt1 | c-Raf-1 | Jnk1 | Jnk3
≤ 10 µM: all other assays above

O=C(Nc1ccc(F)c(C(=O)c2c[nH]c3ncc(Br)cc23)c1F)OCc1ccccc1 [Compound P-1457]
not listed: FGFR1 | c-Raf-1 | Jnk1 | Jnk3
≤ 10 µM: all other assays above

O=C(c1cccc(NS(=O)(=O)c2ccccc2)c1F)c1c[nH]c2ncc(Cl)cc12 [Compound P-1255, N-[3-(5-chloro-1H-pyrrolo[2,3-b]pyridine-3-carbonyl)-2-fluoro-phenyl]benzenesulfonamide]
not listed: Jnk1 | Jnk3
≤ 10 µM: all other assays above

O=C(Nc1ccc(F)c(C(O)c2c[nH]c3ncc(Br)cc23)c1F)OCc1ccccc1 (stereo not shown) [Compound P-1451]
not listed: Flt1 | Jnk1 | Jnk3
≤ 10 µM: all other assays above

c1ccc(Oc2ccc(Nc3c[nH]c4ncccc34)cc2)cc1 [Compound P-1495, (4-Phenoxy-phenyl)-(1H-pyrrolo[2,3-b]pyridin-3-yl)-amine]
≤ 10 µM: B-Raf V600E | Fak | Flt1 | Fms | Kit | Src

CCCS(=O)(=O)Nc1ccc(F)c(Cc2c[nH]c3ncc(-c4cccnc4)cc23)c1F [Compound P-1397]
not listed: Flt1 | Jnk1 | Jnk3
≤ 10 µM: all other assays above

CCCS(=O)(=O)Nc1ccc(F)c(C(=O)c2c[nH]c3ncc(C)cc23)c1F [Compound P-1249]
not listed: Flt1 | Jnk1 | Jnk3
≤ 10 µM: all other assays above

Clc1cccc(Cl)c1Cc1c[nH]c2ncc(-c3cccnc3)cc12 [Compound P-1478, 3-(2,6-Dichloro-benzyl)-5-pyridin-3-yl-1H-pyrrolo[2,3-b]pyridine]
≤ 10 µM: B-Raf V600E | Fak | FGFR1 | Fms | Kit | Src

COc1ccc(F)c(C(=O)c2c[nH]c3ncc(-c4ccccc4)cc23)c1F [Compound P-1387, (2,6-Difluoro-3-methoxy-phenyl)-(5-phenyl-1H-pyrrolo[2,3-b]pyridin-3-yl)-methanone]
not listed: Flt1 | Jnk1 | Jnk3
≤ 10 µM: all other assays above

CCCCS(=O)(=O)Nc1ccc(F)c(C(=O)c2c[nH]c3ncc(OC)cc23)c1F [Compound P-1264, Butane-1-sulfonic acid [2,4-difluoro-3-(5-methoxy-1H-pyrrolo[2,3-b]pyridine-3-carbonyl)-phenyl]-amide]
not listed: Flt1 | c-Raf-1 | Jnk1 | Jnk3
≤ 10 µM: all other assays above

COc1ccc(F)c(C(=O)c2c[nH]c3ncc(-c4cccc(NS(C)(=O)=O)c4)cc23)c1F [Compound P-1391, N-{3-[3-(2,6-Difluoro-3-methoxy-benzoyl)-1H-pyrrolo[2,3-b]pyridin-5-yl]-phenyl}-methanesulfonamide]
not listed: Flt1 | Jnk1 | Jnk3
≤ 10 µM: all other assays above

CCCS(=O)(=O)Nc1ccc(F)c(Cc2c[nH]c3ncc(Cl)cc23)c1F [Compound P-1396]
≤ 10 µM: B-Raf V600E | c-Raf-1 | Fak | FGFR1 | Kit | Src

CCCS(=O)(=O)Nc1ccc(F)c(C(=O)c2c[nH]c3ncc(-c4ccc(N(C)C)cc4)cc23)c1F [Compound P-0889, Propane-1-sulfonic acid {3-[5-(4-dimethylamino-phenyl)-1H-pyrrolo[2,3-b]pyridine-3-carbonyl]-2,4-difluoro-phenyl}-amide]
not listed: Fms | Flt1 | Jnk1 | Jnk3
≤ 10 µM: all other assays above

COCCOc1ccc(F)c(Cc2c[nH]c3ncc(-c4cccnc4)cc23)c1F [Compound P-1458]
not listed: Src | Flt1
≤ 10 µM: all other assays above

CCCS(=O)(=O)Nc1ccc(F)c(C(=O)c2c[nH]c3ncc(Br)cc23)c1 [Compound P-1403, Propane-1-sulfonic acid [3-(5-bromo-1H-pyrrolo[2,3-b]pyridine-3-carbonyl)-4-fluoro-phenyl]-amide]
not listed: B-Raf | Jnk1 | Jnk3
≤ 10 µM: all other assays above
